Test [1] has as its target T1, BRD4 BD2 (Homo sapiens, UniProt O60885).
T1 construct: made in house
Nature of the test: AlphaScreen binding assay, BRD4 Bromodomain 2. How it is done:
(§1) The binding of Example compounds to BRD4 Bromodomain 1 and BRD4 Bromodomain 2 was assessed using 384-well AlphaScreen assay technology. His-epitope tagged BRD4 BD144-168 and BRD4 BD2333-460 were cloned, expressed, and purified to homogeneity. BRD4 BD1 and BRD4 BD2 binding and inhibition was assessed by monitoring the engagement of biotinylated Histone H4 (1-21) K5/8/12/16 tetra-acetylated peptide with the targets using the AlphaScreen technology (PerkinElmer). Specifically, in a 384-well black or white flat bottom plate, BRD4 BD1 (50 nM final) or BRD4 BD2 (100 nM final) was combined with peptide (50 nM final for BD1 or 100 nM final for BD2) in 50 mM HEPES (pH 7.3), 100 mM NaCl, 0.1% (w/v) BSA, and 0.01% (w/v) Triton X-100 either in the presence of DMSO (final 1.25% DMSO) or compound dilution series in DMSO. Alpha streptavidin donor beads and Nickel-chelate acceptor beads were added to a final concentration of 10 μg/ml each. After a minimum of 1 hour equilibration, plates were read on a BMG PHERAstar FS multi-label reader (BMG LabTech). The half maximal inhibitory concentration (IC50) values were calculated using IDBS Activity Base software with a four parameter logistic curve fit by the equation y=A+((B−A)/(1+((C/x)^D))), wherein A denotes the bottom plateau of the curve, B denotes the top plateau of the curve, C denotes the x value at the middle of the curve, D denotes the slope factor, x denotes the original known x values, and y denotes the original known y values. Data was fitted using the Levenburg Marquardt algorithm.

Test [2] deals with T2, BRD4 BD1 (Homo sapiens, UniProt O60885).
T2 construct: made in house
Briefly: AlphaScreen binding assay, BRD4 Bromodomain 1. How it is done:
as §1
Background: Alpha assays give light when donor and acceptor beads are brought close together.

The structures appear in SMILES notation.

Turning to `C[C@H]1CN(C(=O)c2ccco2)c2cc(-c3ccc(S(C)(=O)=O)cc3)ccc2N1S(C)(=O)=O` [Example I-96, (S)-furan-2-yl(3-methyl-4-(methylsulfonyl)-7-(4-(methylsulfonyl)phenyl)-3,4-dihydroquinoxalin-1(2H)-yl)methanone], the figures for the IC50 in test [1] and in test [2] were above 500 nM and above 10000 nM, respectively.
The like results for `CC(=O)N1c2ccc(Oc3ccccc3)nc2N(C(=O)C2CC2)C[C@@H]1C` [Example I-97, (S)-1-(4-(cyclopropanecarbonyl)-2-methyl-6-phenoxy-3,4-dihydropyrido[2,3-b]pyrazin-1(2H)-yl)ethanone] were, in that order, above 500 nM and above 10000 nM.
As to `CC(=O)N1c2ccc(-c3ccc(S(C)(=O)=O)cc3)cc2N(C(=O)N2CCCC2)C[C@@H]1C` [Example I-100, (S)-1-(2-methyl-6-(4-(methylsulfonyl)phenyl)-4-(pyrrolidine-1-carbonyl)-3,4-dihydroquinoxalin-1(2H)-yl)ethanone], the IC50 – broadly, the concentration at which inhibition is half-maximal – in test [1] is 50 to 500 nM; in test [2], above 10000 nM.
For `CC(=O)N1c2ccc(C(=O)N3CCCC3)cc2N(C(=O)c2ccco2)C[C@@H]1C` [Example I-101, (S)-1-(4-(furan-2-carbonyl)-2-methyl-6-(pyrrolidine-1-carbonyl)-3,4-dihydroquinoxalin-1(2H)-yl)ethanone] the same measures were above 500 nM and above 10000 nM.
For `CC(=O)N1c2ccc(-c3ccc(S(C)(=O)=O)cc3)cc2N(C=O)C[C@@H]1C` [Example I-102, (S)-4-acetyl-3-methyl-7-(4-(methylsulfonyl)phenyl)-3,4-dihydroquinoxaline-1(2H)-carbaldehyde] the same measures were above 500 nM and above 10000 nM.
For `C[C@H]1CN(C(=O)c2ccco2)c2cc(-c3ccc(S(C)(=O)=O)cc3)ccc2N1C=O` [Example I-103, (S)-4-(furan-2-carbonyl)-2-methyl-6-(4-(methylsulfonyl)phenyl)-3,4-dihydroquinoxaline-1(2H)-carbaldehyde], the IC50 in test [1] is above 500 nM; in test [2] it was above 10000 nM.
The like results for `CC(=O)N1c2ccc(-c3ccc(S(C)(=O)=O)cc3)cc2N(C)C[C@@H]1C` [Example I-104, (S)-1-(2,4-dimethyl-6-(4-(methylsulfonyl)phenyl)-3,4-dihydroquinoxalin-1(2H)-yl)ethanone] were, in that order, above 500 nM and above 10000 nM.
On to `CC(=O)N1c2ccc(-c3cnn(C4COC4)c3)cc2N(C(=O)CC(C)C)C[C@@H]1C` [Example I-105, (S)-1-(4-acetyl-3-methyl-7-(1-(oxetan-3-yl)-1H-pyrazol-4-yl)-3,4-dihydroquinoxalin-1 (2H)-yl)-3-methylbutan-1-one], for which the IC50 in test [1] is 50 to 500 nM; in test [2] it was above 10000 nM.
As for `CC(=O)N1c2ccc(-c3cnn(C4COC4)c3)cc2N(C(=O)C(F)F)C[C@@H]1C` [Example I-106, (S)-1-(4-acetyl-3-methyl-7-(1-(oxetan-3-yl)-1H-pyrazol-4-yl)-3,4-dihydroquinoxalin-1(2H)-yl)-2,2-difluoroethanone], the IC50 in test [1] was 50 to 500 nM; in test [2], above 10000 nM.
The like results for `CC(=O)N1c2ccc(-c3cnn(C4COC4)c3)cc2N(C(=O)CC2CC2)C[C@@H]1C` [Example I-107, (S)-1-(4-acetyl-3-methyl-7-(1-(oxetan-3-yl)-1H-pyrazol-4-yl)-3,4-dihydroquinoxalin-1(2H)-yl)-2-cyclopropylethanone] were, in that order, 50 to 500 nM and 1000 to 10000 nM.
For `CC(=O)N1c2ccc(-c3cnn(C4COC4)c3)cc2N(C(=O)CC(F)(F)F)C[C@@H]1C` [Example I-108, (S)-1-(4-acetyl-3-methyl-7-(1-(oxetan-3-yl)-1H-pyrazol-4-yl)-3,4-dihydroquinoxalin-1 (2H)-yl)-3,3,3-trifluoropropan-1-one] the same measures were 50 to 500 nM and above 10000 nM.
The like results for `CC(=O)N1c2ccc(-c3cnn(C4COC4)c3)cc2N(C(=O)C(C)C)C[C@@H]1C` [Example I-109, (S)-1-(4-acetyl-3-methyl-7-(1-(oxetan-3-yl)-1H-pyrazol-4-yl)-3,4-dihydroquinoxalin-1 (2H)-yl)-2-methylpropan-1-one] were, in that order, above 500 nM and above 10000 nM.
As to `CC(=O)N1c2ccc(-c3cnn(C4COC4)c3)cc2N(C(=O)C2CCOCC2)C[C@@H]1C` [Example I-110, (S)-1-(2-methyl-6-(1-(oxetan-3-yl)-1H-pyrazol-4-yl)-4-(tetrahydro-2H-pyran-4-carbonyl)-3,4-dihydroquinoxalin-1(2H)-yl)ethanone], the IC50 in test [1] is above 500 nM; in test [2], above 10000 nM.
The like results for `CC(=O)N1c2ccc(-c3cnn(C4COC4)c3)cc2N(C(=O)CC2CCCC2)C[C@@H]1C` [Example I-111, (S)-1-(4-acetyl-3-methyl-7-(1-(oxetan-3-yl)-1H-pyrazol-4-yl)-3,4-dihydroquinoxalin-1(2H)-yl)-2-cyclopentylethanone] were, in that order, 50 to 500 nM and 1000 to 10000 nM.
As for `CC(=O)N1c2ccc(-c3cnn(C4COC4)c3)cc2N(C(=O)C(C)(C)Cl)C[C@@H]1C` [Example I-115, (S)-1-(4-acetyl-3-methyl-7-(1-(oxetan-3-yl)-1H-pyrazol-4-yl)-3,4-dihydroquinoxalin-1(2H)-yl)-2-chloro-2-methylpropan-1-one], the values for the IC50 in test [1] and in test [2] were above 500 nM and above 10000 nM, respectively.
For `CC(=O)N1c2ccc(-c3cnn(Cc4ccncc4)c3)cc2N(C(=O)C2CC2)C[C@@H]1C` [Example I-118, (S)-1-(4-(cyclopropanecarbonyl)-2-methyl-6-(1-(pyridin-4-ylmethyl)-1H-pyrazol-4-yl)-3,4-dihydroquinoxalin-1(2H)-yl)ethanone], the IC50 in test [1] was in the range of 50 to 500 nM; in test [2], 1000 to 10000 nM.
With `CC(=O)N1c2ccc(-c3cnn(CC(=O)N4CCOCC4)c3)cc2N(C(=O)C2CC2)C[C@@H]1C` [Example I-125, (S)-2-(4-(1-acetyl-4-(cyclopropanecarbonyl)-2-methyl-1,2,3,4-tetrahydroquinoxalin-6-yl)-1H-pyrazol-1-yl)-1-morpholinoethanone], the values for the IC50 in test [1] and in test [2] were 50 to 500 nM and 1000 to 10000 nM, respectively.
As to `CNC(=O)Cn1cc(-c2ccc3c(c2)N(C(=O)C2CC2)C[C@H](C)N3C(C)=O)cn1` [Example I-132, (S)-2-(4-(1-acetyl-4-(cyclopropanecarbonyl)-2-methyl-1,2,3,4-tetrahydroquinoxalin-6-yl)-1H-pyrazol-1-yl)-N-methylacetamide], the IC50 was in the range of 50 to 500 nM in test [1] and 1000 to 10000 nM in test [2].
As for `CC(=O)N1c2ccc(-c3cnn(CCC(=O)O)c3)cc2N(C(=O)C2CC2)C[C@@H]1C` [Example I-136, (S)-3-(4-(1-acetyl-4-(cyclopropanecarbonyl)-2-methyl-1,2,3,4-tetrahydroquinoxalin-6-yl)-1H-pyrazol-1-yl)propanoic acid], the IC50 was 50 to 500 nM in test [1] and 1000 to 10000 nM in test [2].
The like results for `CC(=O)N1c2ccc(-c3cnn(Cc4noc(C)n4)c3)cc2N(C(=O)OC(C)C)C[C@@H]1C` [Example I-138, (S)-isopropyl 4-acetyl-3-methyl-7-(1-((5-methyl-1,2,4-oxadiazol-3-yl)methyl)-1H-pyrazol-4-yl)-3,4-dihydroquinoxaline-1(2H)-carboxylate] were, in that order, 50 to 500 nM and 100 to 1000 nM.
The like results for `CC(=O)N1c2ccc(-c3cnn(CCC(F)(F)F)c3)cc2N(C(=O)OC(C)C)C[C@@H]1C` [Example I-142, (S)-isopropyl 4-acetyl-3-methyl-7-(1-(3,3,3-trifluoropropyl)-1H-pyrazol-4-yl)-3,4-dihydroquinoxaline-1(2H)-carboxylate] were, in that order, 50 to 500 nM and 1000 to 10000 nM.
The like results for `CC(=O)N1c2ccc(-c3cnn(CCN4CCOCC4)c3)cc2N(C(=O)C2CC2)C[C@@H]1C` [Example I-151, (S)-1-(4-(cyclopropanecarbonyl)-2-methyl-6-(1-(2-morpholinoethyl)-1H-pyrazol-4-yl)-3,4-dihydroquinoxalin-1(2H)-yl)ethanone] were, in that order, 50 to 500 nM and 1000 to 10000 nM.
As for `CC(=O)N1c2ccc(-c3cnn(C4CC4)c3)nc2N(C(=O)Nc2ccc(F)cc2)C[C@@H]1C` [Example I-192, (S)-1-acetyl-6-(1-cyclopropyl-1H-pyrazol-4-yl)-N-(4-fluorophenyl)-2-methyl-2,3-dihydropyrido[2,3-b]pyrazine-4(1H)-carboxamide], the results for the IC50 in test [1] and in test [2] were above 500 nM and above 10000 nM, respectively.
As to `CC(=O)N1c2ccc(-c3cnn(C4CC4)c3)nc2N(C(=O)NC(C)C)C[C@@H]1C` [Example I-193, (S)-1-acetyl-6-(1-cyclopropyl-1H-pyrazol-4-yl)-N-isopropyl-2-methyl-2,3-dihydropyrido[2,3-b]pyrazine-4(1H)-carboxamide], the IC50 in test [1] was above 500 nM; in test [2] it was above 10000 nM.
The like results for `CC(=O)N1c2ccc(-c3ccc(S(C)(=O)=O)cc3)cc2N(C(=O)Oc2ccc(Cl)cc2)C[C@@H]1C` [Example I-226] were, in that order, 50 to 500 nM and 1000 to 10000 nM.
In the case of `CC(=O)N1c2ccc(-c3ccc(S(C)(=O)=O)cc3)cc2N(C(=O)OCc2ccccc2)C[C@@H]1C` [Example I-230], the IC50 was above 500 nM in test [1] and above 10000 nM in test [2].

The values above are taken from patent US10703764B2, “Benzopiperazine compositions as BET bromodomain inhibitors” (FORMA Therapeutics, Inc., priority 2013, dated 2020).
